Assay results as given in patent US9302999B2, “Substituted triazoles as herbicides” (E. I. DU PONT DE NEMOURS AND COMPANY, priority 2012, dated 2016).

Experiments:
Format in all cases: in vivo
[1] = tested on: field poppy (Papaver rhoeas); assay: Test D pre-/postemergence: field poppy
Excerpt: (§1) Seeds of plant species selected from bluegrass (annual bluegrass, Poa annua), blackgrass (Alopecurus myosuroides), canarygrass (Phalaris minor), chickweed (common chickweed, Stellaria media), galium (catchweed bedstraw, Galium aparine), bromegrass, downy (downy bromegrass, Bromus tectorum), field poppy (Papaver rhoeas), field violet (Viola arvensis), foxtail, green (green foxtail, Setaria viridis), deadnettle (henbit deadnettle, Lamium amplexicaule), ryegrass, Italian (Italian ryegrass, Lolium multiflorum), kochia (Kochia scoparia), lambsquarters (Chenopodium album), oilseed rape (Brassica napus), pigweed (Amaranthus retroflexus), Russian thistle (Salsola iberica), chamomile (scentless chamomile, Matricaria inodora), speedwell (bird's-eye speedwell, Veronica persica), barley, spring (spring barley, Hordeum vulgare), wheat, spring (spring wheat, Triticum aestivum), buckwheat, wild (wild buckwheat, Polygonum convolvulus), mustard, wild (wild mustard, Sinapis arvensis), oat, wild (wild oat, Avena fatua), radish, wild (wild radish, Raphanus raphanistrum), windgrass (Apera spica-venti), barley, winter (winter barley, Hordeum vulgare), and wheat, winter (winter wheat, Triticum aestivum) were planted into a silt loam soil and treated preemergence with test chemicals formulated in a non-phytotoxic solvent mixture which included a surfactant. At the same time, these same crop and weed species were planted in pots containing the planting medium comprising spaghnum peat moss, vermiculite, wetting agent and starter nutrients and treated with postemergence applications of the test chemicals formulated in the same manner. Plants ranged in height from 2 to 18 cm (1- to 4-leaf stage).
(§2) Treated plants and controls were maintained in a controlled growth environment for 14 to 21 days after which time all species were compared to controls and visually evaluated. Plant response ratings, summarized in Table D, are based on a scale of 0 to 100 where 0 is no effect and 100 is complete control. A dash (-) response means no test result.

[2] = tested on: Russian thistle (Salsola iberica); assay: Test D pre-/postemergence: Russian thistle
Excerpt: as §1, §2

[3] = tested on: windgrass (Apera spica-venti); assay: Test D pre-/postemergence: windgrass
Excerpt: as §1, §2

[4] = tested on: galium (catchweed bedstraw, Galium aparine); assay: Test D pre-/postemergence: galium
Excerpt: as §1, §2

[5] = tested on: goosegrass (Eleusine indica); assay: Test C pre-/postemergence: goosegrass
Excerpt: (§3) Seeds of plant species selected from blackgrass (Alopecurus myosuroides), bromegrass, downy (downy bromegrass, Bromus tectorum), foxtail, green (green foxtail, Setaria viridis), ryegrass, Italian (Italian ryegrass, Lolium multiflorum), winter wheat (Triticum aestivum), wild oat (Avena fatua), galium (catchweed bedstraw, Galium aparine), bermudagrass (Cynodon dactylon), surinam grass (Brachiaria decumbens), cocklebur (common cocklebur, Xanthium strumarium), corn (Zea mays), large crabgrass (Digitaria sanguinalis), woolly cupgrass (Eriochloa villosa), foxtail, giant (giant foxtail, Setaria faberii), goosegrass (Eleusine indica), johnsongrass (Sorghum halepense), kochia (Kochia scoparia), lambsquarters (Chenopodium album), morningglory (Ipomoea coccinea), nightshade (eastern black nightshade, Solanum ptycanthum), nutsedge, yellow (yellow nutsedge, Cyperus esculentus), pigweed (Amaranthus retroflexus), ragweed (common ragweed, Ambrosia elation), soybean (Glycine max), common (oilseed) sunflower (Helianthus annuus), Russian thistle (Salsola kali) and velvetleaf (Abutilon theophrasti) were planted into a blend of loam soil and sand and treated preemergence with test chemicals formulated in a non-phytotoxic solvent mixture which included a surfactant.
(§4) At the same time, plants selected from these crop and weed species and also barley (winter barley, Hordeum vulgare), canarygrass (Phalaris minor), chickweed (common chickweed, Stellaria media) windgrass (Apera spica-venti) and deadnettle (henbit deadnettle, Lamium amplexicaule) were planted in pots containing Redi-Earth® planting medium (Scotts Company, 14111 Scottslawn Road, Marysville, Ohio 43041) comprising spaghnum peat moss, vermiculite, wetting agent and starter nutrients and treated with postemergence applications of test chemicals formulated in the same manner. Plants ranged in height from 2 to 18 cm (1- to 4-leaf stage) for postemergence treatments.
as §2, with “greenhouse” for “controlled growth environment”, “13” for “14”, “15 days,” for “21 days”, “C,” for “D,”

[6] = tested on: wheat, winter (winter wheat, Triticum aestivum); assay: Test D pre-/postemergence: wheat, winter
Excerpt: as §1, §2

[7] = tested on: bromegrass, downy (downy bromegrass, Bromus tectorum); assay: Test D pre-/postemergence: bromegrass, downy
Excerpt: as §1, §2

[8] = tested on: foxtail, green (green foxtail, Setaria viridis); assay: Test C pre-/postemergence: foxtail, green
Excerpt: as §3, §4
as §2, with “greenhouse” for “controlled growth environment”, “13” for “14”, “15 days,” for “21 days”, “C,” for “D,”

[9] = tested on: nightshade (eastern black nightshade, Solanum ptycanthum); assay: Test C pre-/postemergence: nightshade; conditions: Preemergence
Excerpt: as §3, §4
as §2, with “greenhouse” for “controlled growth environment”, “13” for “14”, “15 days,” for “21 days”, “C,” for “D,”

[10] = Postemergence, 31 g ai/ha, scale 0 to 100 (0 no effect, 100 complete control)
[11] = Postemergence, 62 g ai/ha, scale 0 to 100 (0 no effect, 100 complete control)
[12] = Postemergence, 125 g ai/ha, scale 0 to 100, 0 no effect, 100 complete control
[13] = Postemergence, 250 g ai/ha, scale 0 to 100 (0 no effect, 100 complete control)
[14] = Postemergence, 16 g ai/ha, scale 0 to 100
[15] = Postemergence, 250 g ai/ha, scale 0 to 100
[16] = Preemergence, 16 g ai/ha, scale 0 to 100 (0 no effect, 100 complete control)
[17] = Preemergence, 31 g ai/ha, scale 0 to 100 (0 no effect, 100 complete control)
[18] = Preemergence, 62 g ai/ha, scale 0 to 100
[19] = Preemergence, 125 g ai/ha, scale 0 to 100
[20] = Preemergence, 250 g ai/ha, scale 0 to 100
[21] = Preemergence, 31 g ai/ha, scale of 0 to 100, 0 is no effect, 100 is complete control
[22] = Preemergence, 62 g ai/ha, scale of 0 to 100, 0 is no effect, 100 is complete control
[23] = Preemergence, 125 g ai/ha, scale 0 to 100, 0 no effect, 100 complete control
[24] = Preemergence, 250 g ai/ha, scale 0 to 100, 0 no effect, 100 complete control
[25] = Postemergence, 16 g ai/ha, scale 0 to 100, 0 no effect, 100 complete control

Compound: Cc1nn(-c2ccnc(C(F)(F)F)c2)nc1Cc1ccnc(C(F)(F)F)c1 [Compound 137]
- Plant response rating: Field Poppy [1, 10]: 40
- Plant response rating: Field Poppy [1, 11]: 100
- Plant response rating: Field Poppy [1, 12]: 100
- Plant response rating: Field Poppy [1, 13]: 100
- Plant response rating, Field Poppy [1, 14]: 30
- Plant response rating: Russian Thistle [2, 11]: 85
- Plant response rating: Russian Thistle [2, 12]: 85
- Plant response rating: Russian Thistle [2, 13]: 90
- Plant response rating, Russian Thistle [2, 14]: 30
- Plant response rating: Windgrass [3, 11]: 40
- Plant response rating: Windgrass [3, 12]: 50
- Plant response rating: Windgrass [3, 13]: 80
- Plant response rating, Windgrass [3, 14]: 10
- Plant response rating, Windgrass ([3]; Postemergence, 31 g ai/ha, scale 0 to 100): 20
- Plant response rating: Galium [4, 10]: 20
- Plant response rating: Galium [4, 11]: 40
- Plant response rating: Galium [4, 12]: 75
- Plant response rating: Galium [4, 13]: 75
- Plant response rating, Galium [4, 14]: 20
- Plant response rating, Goosegrass [5, 10]: 20
- Plant response rating, Goosegrass [5, 11]: 25
- Plant response rating, Goosegrass [5, 12]: 65
- Plant response rating: Wheat, Winter [6, 10]: 5
- Plant response rating: Wheat, Winter [6, 11]: 10
- Plant response rating: Wheat, Winter [6, 12]: 15
- Plant response rating: Wheat, Winter [6, 13]: 20
- Plant response rating, Wheat, Winter [6, 14]: 5
- Plant response rating: Bromegrass, Downy [7, 10]: 15
- Plant response rating: Bromegrass, Downy [7, 11]: 20
- Plant response rating: Bromegrass, Downy [7, 12]: 30
- Plant response rating: Bromegrass, Downy [7, 13]: 40
- Plant response rating, Bromegrass, Downy [7, 14]: 5
- Plant response rating, Foxtail, Green [8, 10]: 80
- Plant response rating, Foxtail, Green [8, 11]: 85
- Plant response rating, Foxtail, Green [8, 12]: 95
- Plant response rating, Foxtail, Green [8, 15]: 95

Compound: Cc1nn(-c2ccc(F)cc2)nc1Oc1ccnc(C(F)(F)F)c1 [Compound 129, 4-[[2-(4-fluorophenyl)-5-methyl-2H-1,2,3-triazol-4-yl]oxy]-2-(trifluoromethyl)pyridine]
- Plant response rating: Field Poppy [1, 10]: 100
- Plant response rating: Field Poppy [1, 11]: 100
- Plant response rating: Field Poppy [1, 12]: 100
- Plant response rating: Field Poppy [1, 13]: 85
- Plant response rating, Field Poppy [1, 14]: 100
- Plant response rating, Field Poppy [1, 16]: 0
- Plant response rating, Field Poppy [1, 17]: 75
- Plant response rating, Field Poppy [1, 18]: 70
- Plant response rating, Field Poppy [1, 19]: 100
- Plant response rating, Field Poppy [1, 20]: 100
- Plant response rating: Russian Thistle [2, 10]: 98
- Plant response rating: Russian Thistle [2, 11]: 100
- Plant response rating: Russian Thistle [2, 12]: 100
- Plant response rating: Russian Thistle [2, 13]: 100
- Plant response rating, Russian Thistle [2, 14]: 98
- Plant response rating, Russian Thistle [2, 16]: 80
- Plant response rating, Russian Thistle [2, 17]: 100
- Plant response rating, Russian Thistle [2, 18]: 100
- Plant response rating, Russian Thistle [2, 19]: 100
- Plant response rating, Russian Thistle [2, 20]: 100
- Plant response rating: Windgrass [3, 10]: 20
- Plant response rating: Windgrass [3, 11]: 30
- Plant response rating: Windgrass [3, 12]: 70
- Plant response rating: Windgrass [3, 13]: 95
- Plant response rating, Windgrass [3, 14]: 15
- Plant response rating, Windgrass [3, 16]: 0
- Plant response rating, Windgrass [3, 17]: 0
- Plant response rating, Windgrass [3, 18]: 10
- Plant response rating, Windgrass [3, 19]: 75
- Plant response rating, Windgrass [3, 20]: 100
- Plant response rating, Nightshade ([9]; 31 g ai/ha, scale of 0 to 100, 0 is no effect, 100 is complete control): 85
- Plant response rating, Nightshade ([9]; 62 g ai/ha, scale of 0 to 100, 0 is no effect, 100 is complete control): 90
- Plant response rating, Nightshade ([9]; 125 g ai/ha, scale 0 to 100, 0 no effect, 100 complete control): 90
- Plant response rating, Nightshade ([9]; 250 g ai/ha, scale 0 to 100, 0 no effect, 100 complete control): 95
- Plant response rating: Galium [4, 10]: 50
- Plant response rating: Galium [4, 11]: 75
- Plant response rating: Galium [4, 12]: 85
- Plant response rating: Galium [4, 13]: 98
- Plant response rating, Galium [4, 14]: 40
- Plant response rating, Galium [4, 17]: 0
- Plant response rating, Galium [4, 18]: 100
- Plant response rating, Galium [4, 19]: 100
- Plant response rating, Galium [4, 20]: 100
- Plant response rating, Goosegrass [5, 10]: 15
- Plant response rating, Goosegrass [5, 11]: 25
- Plant response rating, Goosegrass [5, 12]: 30
- Plant response rating, Goosegrass [5, 15]: 55
- Plant response rating, Goosegrass [5, 21]: 98
- Plant response rating, Goosegrass [5, 22]: 98
- Plant response rating, Goosegrass [5, 23]: 98
- Plant response rating, Goosegrass [5, 24]: 98
- Plant response rating: Wheat, Winter [6, 10]: 5
- Plant response rating: Wheat, Winter [6, 11]: 10
- Plant response rating: Wheat, Winter [6, 12]: 20
- Plant response rating: Wheat, Winter [6, 13]: 20
- Plant response rating, Wheat, Winter [6, 14]: 5
- Plant response rating, Wheat, Winter [6, 16]: 0
- Plant response rating, Wheat, Winter [6, 17]: 0
- Plant response rating, Wheat, Winter [6, 18]: 0
- Plant response rating, Wheat, Winter [6, 19]: 5
- Plant response rating, Wheat, Winter [6, 20]: 10
- Plant response rating: Bromegrass, Downy [7, 10]: 10
- Plant response rating: Bromegrass, Downy [7, 11]: 20
- Plant response rating: Bromegrass, Downy [7, 12]: 30
- Plant response rating: Bromegrass, Downy [7, 13]: 30
- Plant response rating, Bromegrass, Downy [7, 14]: 10
- Plant response rating, Bromegrass, Downy [7, 16]: 0
- Plant response rating, Bromegrass, Downy [7, 17]: 10
- Plant response rating, Bromegrass, Downy [7, 18]: 10
- Plant response rating, Bromegrass, Downy [7, 19]: 20
- Plant response rating, Bromegrass, Downy [7, 20]: 30
- Plant response rating, Foxtail, Green [8, 10]: 85
- Plant response rating, Foxtail, Green [8, 11]: 95
- Plant response rating, Foxtail, Green [8, 12]: 95
- Plant response rating, Foxtail, Green [8, 15]: 95
- Plant response rating, Foxtail, Green [8, 21]: 90
- Plant response rating, Foxtail, Green [8, 22]: 90
- Plant response rating, Foxtail, Green [8, 23]: 90
- Plant response rating, Foxtail, Green [8, 24]: 90

Compound: Cc1nn(-c2ccc(C(F)(F)F)cc2)nc1Cc1cccc(C(F)(F)F)c1 [Compound 124]
- Plant response rating, Goosegrass [5, 25]: 25
- Plant response rating, Goosegrass [5, 10]: 45
- Plant response rating, Goosegrass [5, 11]: 55
- Plant response rating, Goosegrass [5, 12]: 65
- Plant response rating, Foxtail, Green [8, 25]: 65
- Plant response rating, Foxtail, Green [8, 10]: 70
- Plant response rating, Foxtail, Green [8, 11]: 90
- Plant response rating, Foxtail, Green [8, 12]: 95
